Data published in patent publication US20260297060A1, “COMPOUNDS FOR THE DEGRADATION OF MUTANT BRAF” (C4 THERAPEUTICS, INC., priority 2023, published 2026).
Like-named read-outs stand apart in the source and are kept apart here.

Experiments:
A375-NRAS^Q61K cells = experiment: CTGlo Cell Viability Assay, A375-NRAS^Q61K (A375.11) cells, 96 hours; type: cell-based, human; settings: Homo sapiens, 96 h, A375.11 (A375-NRAS^Q61K) cells; for Emax: lowest % viability achieved
Method in brief: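 Viability as CellTiter-Glo ATP luminescence after 96 h compound exposure at 37 °C; A375.11 (BRAF V600E/NRAS Q61K) cells at 250/well, top final concentration 10 μM in half-log steps. Signal was background-corrected and set relative to DMSO controls. A 4-parameter logistic fit gave GI50 (50% crossing) and Emax.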

BRAF V600E = target: T1, BRAF V600E (Homo sapiens, UniProt P15056+Q96SW2, V600E); experiment: BRAF V600E HiBiT Degradation Assay; type: cell-based
T1 construct: knock-in of the HiBiT tag to the endogenous BRAF V600E locus; host or cells: A375.10 (A375 clonal line, CRISPR HiBiT knock-in at the endogenous BRAF V600E locus)
Method in brief: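 Endogenous HiBiT knock-in on BRAF V600E in A375 cells (clone A375.10); 11-point half-log series, top 10 μM, 2, 6 or 24 h at 37° C. Lytic HiBiT luminescence, background-subtracted, normalized to DMSO; 4-parameter fit gives DC50, Emax (residual protein) and IP (inflection point).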

[1] = A375.10 cells, BRAF V600E, 2 hours, inflection point, read-out: HiBiT-Degradation A375.10 BRAF 2 hours IP
[2] = A375.10 cells, BRAF V600E, 2 hours, read-out: HiBiT-Degradation A375.10 BRAF 2 hours DC50
[3] = A375.10 cells, BRAF V600E, 2 hours, residual protein remaining, read-out: HiBiT-Degradation A375.10 BRAF 2 hours Emax
[4] = A375.10 cells, HiBiT, BRAF V600E, 24 hours, read-out: HiBiT-Degradation A375.10 BRAF 24 hours DC50
[5] = A375.10 cells, HiBiT, BRAF V600E, 24 hours, read-out: HiBiT-Degradation A375.10 BRAF 24 hours Emax
[6] = A375.10 cells, HiBiT, BRAF V600E, 24 hours, read-out: HiBiT-Degradation A375.10 BRAF 24 hours IP

T1 sequence (P15056 whole entry V600E): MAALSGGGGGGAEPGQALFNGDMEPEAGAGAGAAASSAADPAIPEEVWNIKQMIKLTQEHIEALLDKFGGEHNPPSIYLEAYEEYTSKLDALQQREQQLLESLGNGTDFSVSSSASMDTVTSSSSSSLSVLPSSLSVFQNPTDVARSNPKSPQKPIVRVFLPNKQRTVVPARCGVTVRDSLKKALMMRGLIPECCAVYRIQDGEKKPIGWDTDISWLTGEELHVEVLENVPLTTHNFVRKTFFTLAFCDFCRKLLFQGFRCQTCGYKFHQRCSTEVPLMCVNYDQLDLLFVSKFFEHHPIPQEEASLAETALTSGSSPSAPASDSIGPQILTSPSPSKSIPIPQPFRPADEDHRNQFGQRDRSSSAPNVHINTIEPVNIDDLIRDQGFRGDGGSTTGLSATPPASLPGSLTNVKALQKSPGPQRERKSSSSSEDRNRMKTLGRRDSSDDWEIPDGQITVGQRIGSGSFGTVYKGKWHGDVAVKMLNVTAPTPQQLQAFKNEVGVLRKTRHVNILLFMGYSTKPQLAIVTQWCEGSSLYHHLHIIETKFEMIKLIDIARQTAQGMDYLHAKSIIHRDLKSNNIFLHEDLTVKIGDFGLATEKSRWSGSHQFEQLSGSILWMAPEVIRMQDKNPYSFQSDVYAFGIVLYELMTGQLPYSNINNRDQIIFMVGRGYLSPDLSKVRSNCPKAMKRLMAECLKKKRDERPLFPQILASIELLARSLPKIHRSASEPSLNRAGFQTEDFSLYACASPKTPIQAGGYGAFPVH
T1 sequence (Q96SW2 whole entry): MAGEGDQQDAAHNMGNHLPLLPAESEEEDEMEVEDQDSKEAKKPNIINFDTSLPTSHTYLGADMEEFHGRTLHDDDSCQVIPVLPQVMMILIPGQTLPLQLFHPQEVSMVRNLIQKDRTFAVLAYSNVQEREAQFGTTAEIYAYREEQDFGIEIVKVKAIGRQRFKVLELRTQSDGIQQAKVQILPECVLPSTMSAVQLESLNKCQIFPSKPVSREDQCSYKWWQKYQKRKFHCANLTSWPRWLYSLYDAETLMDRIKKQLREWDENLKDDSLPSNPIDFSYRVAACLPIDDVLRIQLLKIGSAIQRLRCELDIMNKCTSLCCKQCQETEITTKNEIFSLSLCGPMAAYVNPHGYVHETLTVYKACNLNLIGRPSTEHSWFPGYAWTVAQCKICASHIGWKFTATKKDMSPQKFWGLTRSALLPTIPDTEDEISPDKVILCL
T1 sequence (Q16531 whole entry partner): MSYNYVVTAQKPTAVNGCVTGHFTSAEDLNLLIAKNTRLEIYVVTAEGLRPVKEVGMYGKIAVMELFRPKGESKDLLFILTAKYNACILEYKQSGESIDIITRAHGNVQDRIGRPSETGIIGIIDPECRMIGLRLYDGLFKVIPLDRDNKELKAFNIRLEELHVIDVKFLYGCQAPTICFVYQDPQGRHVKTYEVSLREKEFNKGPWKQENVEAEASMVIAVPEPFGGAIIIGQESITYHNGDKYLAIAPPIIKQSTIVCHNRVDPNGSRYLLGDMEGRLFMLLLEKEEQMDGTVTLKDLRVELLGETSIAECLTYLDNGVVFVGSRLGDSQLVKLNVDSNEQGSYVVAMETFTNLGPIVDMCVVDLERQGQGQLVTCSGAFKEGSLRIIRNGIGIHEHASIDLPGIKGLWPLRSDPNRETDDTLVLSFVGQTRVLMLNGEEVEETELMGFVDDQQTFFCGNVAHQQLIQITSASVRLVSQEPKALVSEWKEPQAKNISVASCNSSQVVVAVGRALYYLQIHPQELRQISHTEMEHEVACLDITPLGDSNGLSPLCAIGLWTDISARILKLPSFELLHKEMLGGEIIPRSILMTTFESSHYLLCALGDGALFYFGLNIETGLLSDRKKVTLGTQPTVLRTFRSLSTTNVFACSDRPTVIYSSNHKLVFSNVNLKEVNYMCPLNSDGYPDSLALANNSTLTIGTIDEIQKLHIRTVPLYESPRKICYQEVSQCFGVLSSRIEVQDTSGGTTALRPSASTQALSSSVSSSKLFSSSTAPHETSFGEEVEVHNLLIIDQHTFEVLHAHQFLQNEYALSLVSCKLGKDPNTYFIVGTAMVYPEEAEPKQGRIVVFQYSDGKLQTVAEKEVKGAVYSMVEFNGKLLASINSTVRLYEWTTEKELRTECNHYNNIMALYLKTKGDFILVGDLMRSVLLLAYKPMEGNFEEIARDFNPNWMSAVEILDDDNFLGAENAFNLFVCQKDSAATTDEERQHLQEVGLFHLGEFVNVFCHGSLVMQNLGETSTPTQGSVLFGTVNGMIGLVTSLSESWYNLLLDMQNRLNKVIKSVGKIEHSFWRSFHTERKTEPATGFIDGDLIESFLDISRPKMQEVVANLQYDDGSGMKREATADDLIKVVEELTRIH

Row | Compound | GI50 (A375-NRAS^Q61K cells) [nM] | DC50 (BRAF V600E; [1]) [nM] | DC50 (BRAF V600E; [2]) [nM] | Emax (BRAF V600E; read-out: HiBiT-Degradation A375.10 BRAF 2 hours Emax, A375.10 cells, BRAF V600E, 2 hours, residual protein remaining) [%] | Emax (BRAF V600E; [3]) [%] | DC50 (BRAF V600E; [4]) [nM] | Emax (BRAF V600E; [5]) [%] | DC50 (BRAF V600E; [6]) [nM] | Emax (A375-NRAS^Q61K cells) [%]
1 | CCN(C)S(=O)(=O)Nc1ccc(F)c(Oc2ccc3ncn(C4CC5(CC(N6CC[C@H](c7cc8c(cc7F)c(N7CCC(=O)NC7=O)nn8C)C(F)(F)C6)C5)C4)c(=O)c3c2)c1C#N (stereo partly drawn) [Compound 217, 6-[2-cyano-3-[[ethyl(methyl)sulfamoyl]amino]-6-fluoro-phenoxy]-3-[2-[(4R)-4-[3-(2,4-dioxohexahydropyrimidin-1-yl)-5-fluoro-1-methyl-indazol-6-yl]-3,3-difluoro-1-piperidyl]spiro[3.3]heptan-6-yl]-4-oxo-quinazoline] | 1000 to 10000 | < 1000 | < 1000 | – | < 50 | – | – | – | 50 to 90
2 | CCN(C)S(=O)(=O)Nc1ccc(F)c(Oc2ccc3ncn(C4CC5(CCN(C6CCC7(CC6)CN(c6cc8c(cc6F)c(N6CCC(=O)NC6=O)nn8C)C7)CC5)C4)c(=O)c3c2)c1C#N (centres unmarked) [Compound 220, 6-[2-cyano-3-[[ethyl(methyl)sulfamoyl]amino]-6-fluoro-phenoxy]-3-[7-[2-[3-(2,4-dioxohexahydropyrimidin-1-yl)-5-fluoro-1-methyl-indazol-6-yl]-2-azaspiro[3.5]nonan-7-yl]-7-azaspiro[3.5]nonan-2-yl]-4-oxo-quinazoline] | > 10000 | < 1000 | > 10000 | – | 50 to 90 | – | – | – | 50 to 90
3 | CCN(C)S(=O)(=O)Nc1ccc(F)c(Oc2ccc3ncc(OCC4CCN(C5CC6(C5)CN(c5cc7c(cc5F)c(N5CCC(=O)NC5=O)nn7C)C6)CC4)nc3c2)c1C#N [Compound 223, 7-[2-cyano-3-[[ethyl(methyl)sulfamoyl]amino]-6-fluoro-phenoxy]-2-[[1-[2-[3-(2,4-dioxohexahydropyrimidin-1-yl)-5-fluoro-1-methyl-indazol-6-yl]-2-azaspiro[3.3]heptan-6-yl]-4-piperidyl]methoxy]quinoxaline] | 1000 to 10000 | < 1000 | < 1000 | – | < 50 | – | – | – | 50 to 90
4 | CCN(C)S(=O)(=O)Nc1ccc(F)c(Oc2ccc3ncn(C4CC5(CC(N6CC[C@@H](c7cc8c(cc7F)c(N7CCC(=O)NC7=O)nn8C)C(F)(F)C6)C5)C4)c(=O)c3c2)c1C#N (stereo partly drawn) [Compound 227, 6-[2-cyano-3-[[ethyl(methyl)sulfamoyl]amino]-6-fluoro-phenoxy]-3-[2-[(4S)-4-[3-(2,4-dioxohexahydropyrimidin-1-yl)-5-fluoro-1-methyl-indazol-6-yl]-3,3-difluoro-1-piperidyl]spiro[3.3]heptan-6-yl]-4-oxo-quinazoline] | 1000 to 10000 | < 1000 | < 1000 | – | < 50 | – | – | – | 50 to 90
5 | CCN(C)S(=O)(=O)Nc1ccc(F)c(Oc2ccc3ncn([C@H]4COC5(CCN(CC6CN(c7cc8c(cc7F)c(N7CCC(=O)NC7=O)nn8C)C6)CC5)C4)c(=O)c3c2)c1C#N [Compound 231, (3R)-3-[6-[2-cyano-3-[[ethyl(methyl)sulfamoyl]amino]-6-fluoro-phenoxy]-4-oxo-quinazolin-3-yl]-8-[[1-[3-(2,4-dioxohexahydropyrimidin-1-yl)-5-fluoro-1-methyl-indazol-6-yl]azetidin-3-yl]methyl]-1-oxa-8-azaspiro[4.5]decane] | 1000 to 10000 | < 1000 | < 1000 | – | 50 to 90 | < 1000 | < 50 | < 1000 | 50 to 90

Now from value to molecule, other results behind:

Row | GI50 (A375-NRAS^Q61K cells) [nM] | DC50 (BRAF V600E; [1]) [nM] | DC50 (BRAF V600E; [2]) [nM] | Emax (BRAF V600E; read-out: HiBiT-Degradation A375.10 BRAF 2 hours Emax, A375.10 cells, BRAF V600E, 2 hours, residual protein remaining) [%] | Emax (BRAF V600E; [3]) [%] | DC50 (BRAF V600E; [4]) [nM] | Emax (BRAF V600E; [5]) [%] | DC50 (BRAF V600E; [6]) [nM] | Compound | Emax (A375-NRAS^Q61K cells) [%]
6 | < 1000 | < 1000 | < 1000 | < 50 | – | – | – | – | CCN(C)S(=O)(=O)Nc1ccc(F)c(C(=O)c2ccc3ncn([C@H]4COC5(CCN(C6CCC(c7cc8c(cc7F)c(N7CCC(=O)NC7=O)nn8C)CC6)CC5)C4)c(=O)c3c2)c1F (stereo partly drawn) [Compound 208, (3R)-8-[4-[3-(2,4-dioxohexahydropyrimidin-1-yl)-5-fluoro-1-methyl-indazol-6-yl]cyclohexyl]-3-[6-[3-[[ethyl(methyl)sulfamoyl]amino]-2,6-difluoro-benzoyl]-4-oxo-quinazolin-3-yl]-1-oxa-8-azaspiro[4.5]decane] | 50 to 90
7 | 1000 to 10000 | < 1000 | < 1000 | – | 50 to 90 | – | – | – | CCN(C)S(=O)(=O)Nc1ccc(F)c(Oc2ccc3ncn(C4CC5(CCN([C@H]6C[C@@H](c7cc8c(cc7F)c(N7CCC(=O)NC7=O)nn8C)C6)CC5)C4)c(=O)c3c2)c1C#N [Compound 209, 6-[2-cyano-3-[[ethyl(methyl)sulfamoyl]amino]-6-fluoro-phenoxy]-3-[7-[3-[3-(2,4-dioxohexahydropyrimidin-1-yl)-5-fluoro-1-methyl-indazol-6-yl]cyclobutyl]-7-azaspiro[3.5]nonan-2-yl]-4-oxo-quinazoline] | < 50
8 | < 1000 | < 1000 | < 1000 | – | < 50 | – | – | – | CCN(C)S(=O)(=O)Nc1ccc(F)c(Oc2ccc3ncn(C4CC5(CCN(C6COC7(CCN(c8cc9c(cc8F)c(N8CCC(=O)NC8=O)nn9C)CC7)C6)CC5)C4)c(=O)c3c2)c1C#N (centres unmarked) [Compound 216] | 50 to 90
9 | < 1000 | < 1000 | < 1000 | – | < 50 | – | – | – | CCN(C)S(=O)(=O)Nc1ccc(F)c(Oc2ccc3ncn(C4CC5(CCC(N6CC[C@H](c7cc8c(cc7F)c(N7CCC(=O)NC7=O)nn8C)C(F)(F)C6)CC5)C4)c(=O)c3c2)c1C#N (stereo partly drawn) [Compound 224, 6-[2-cyano-3-[[ethyl(methyl)sulfamoyl]amino]-6-fluoro-phenoxy]-3-[7-[(4R)-4-[3-(2,4-dioxohexahydropyrimidin-1-yl)-5-fluoro-1-methyl-indazol-6-yl]-3,3-difluoro-1-piperidyl]spiro[3.5]nonan-2-yl]-4-oxo-quinazoline] | 50 to 90
10 | < 1000 | < 1000 | < 1000 | – | < 50 | – | – | – | CCN(C)S(=O)(=O)Nc1ccc(F)c(Oc2ccc3ncn(C4CC5(CCC(N6CC[C@@H](c7cc8c(cc7F)c(N7CCC(=O)NC7=O)nn8C)C(F)(F)C6)CC5)C4)c(=O)c3c2)c1C#N (stereo partly drawn) [Compound 225, 6-[2-cyano-3-[[ethyl(methyl)sulfamoyl]amino]-6-fluoro-phenoxy]-3-[7-[(4S)-4-[3-(2,4-dioxohexahydropyrimidin-1-yl)-5-fluoro-1-methyl-indazol-6-yl]-3,3-difluoro-1-piperidyl]spiro[3.5]nonan-2-yl]-4-oxo-quinazoline] | < 50
11 | < 1000 | < 1000 | < 1000 | – | < 50 | < 1000 | < 50 | < 1000 | CCN(C)S(=O)(=O)Nc1ccc(F)c(Oc2ccc3ncn(C4CC5(CCN(CC6(O)CCN(c7cc8c(cc7F)c(N7CCC(=O)NC7=O)nn8C)CC6)CC5)C4)c(=O)c3c2)c1C#N [Compound 226, 6-[2-cyano-3-[[ethyl(methyl)sulfamoyl]amino]-6-fluoro-phenoxy]-3-[7-[[1-[3-(2,4-dioxohexahydropyrimidin-1-yl)-5-fluoro-1-methyl-indazol-6-yl]-4-hydroxy-4-piperidyl]methyl]-7-azaspiro[3.5]nonan-2-yl]-4-oxo-quinazoline] | 50 to 90
12 | < 1000 | < 1000 | < 1000 | – | < 50 | < 1000 | < 50 | < 1000 | CCN(C)S(=O)(=O)Nc1ccc(F)c(Oc2ccc3ncn([C@H]4COC5(CCN(CC6(O)CCN(c7cc8c(cc7F)c(N7CCC(=O)NC7=O)nn8C)CC6)CC5)C4)c(=O)c3c2)c1C#N [Compound 230, (3R)-3-[6-[2-cyano-3-[[ethyl(methyl)sulfamoyl]amino]-6-fluoro-phenoxy]-4-oxo-quinazolin-3-yl]-8-[[1-[3-(2,4-dioxohexahydropyrimidin-1-yl)-5-fluoro-1-methyl-indazol-6-yl]-4-hydroxy-4-piperidyl]methyl]-1-oxa-8-azaspiro[4.5]decane] | 50 to 90
13 | < 1000 | < 1000 | < 1000 | – | < 50 | < 1000 | < 50 | < 1000 | Cn1nc(N2CCC(=O)NC2=O)c2cc(F)c(N3CC4(CC(N5CCC6(CC5)C[C@@H](n5cnc7ccc(Oc8c(F)ccc(NS(=O)(=O)C9CC9)c8C#N)cc7c5=O)CO6)C4)C3)cc21 [Compound 234, N-[2-cyano-3-[3-[(3R)-8-[2-[3-(2,4-dioxohexahydropyrimidin-1-yl)-5-fluoro-1-methyl-indazol-6-yl]-2-azaspiro[3.3]heptan-6-yl]-1-oxa-8-azaspiro[4.5]decan-3-yl]-4-oxo-quinazolin-6-yl]oxy-4-fluoro-phenyl]cyclopropanesulfonamide] | 50 to 90
